Article PMC12517324, “Hyperagonism of a Vitamin D Receptor Agonist/Histone Deacetylase Inhibitor Hybrid Molecule” (Journal of Medicinal Chemistry, 2025)

Tested on: B16–F10 cells
Experiment: RNaseq gene expression profiling
Type: cell-based, mouse
Conditions: RNAseq
Method: AC-340 superinduced CYP24A1 expression in all cell lines tested, and ZG-126 appeared to be a hyperagonist in SK-MEL-28 cells. […] AC-340 treatment produced 3 times more differentially expressed genes (DEGs) than AM-193, with ZG-126 producing an intermediate number (Figure A). […] The varying effects of each treatment on the numbers of regulated genes and the fold changes observed are reflected in plots of log-fold changes and volcano plots (Figure S3B).
A quality control was performed before sequencing in paired-end at 50 M reads by Illumina NovaSeq 6000 S4 PE100. After sequencing, the FASTQ files were sent to us and all downstream analysis were performed on Galaxy (Galaxy (usegalaxy.org)). First, trimmomatic tool was used to remove the adapters from the reads. Then, using the alignment tool, HISAT2, the reads were mapped to the mouse genome. In the next step, the counted reads were annotated and finally the list of differentially expressed genes (DEGs) for each treatment was obtained using the preinstalled R package called Limma.

Question: What does the source list for CCC(CC)(c1ccc(OCCCCCC(=O)NO)cc1)c1ccc(OCC(O)C(C)(C)C)c(C)n1 (stereo not shown) [AM-193]?
Answer: logFC Acat2 (gene Acat2, AM193-significant genes): -0.7924; logFC Agt (gene Agt, AM193-significant genes): -0.9491; logFC Aimp2 (gene Aimp2, AM193-significant genes): -0.7904; logFC Alyref (gene Alyref, AM193-significant genes): -0.7893; logFC Anln (gene Anln, AM193-significant genes): -0.751; logFC Aurkb (gene Aurkb, AM193-significant genes): -0.7442; logFC B3galt5 (gene B3galt5, AM193-significant genes): -0.7772; logFC Bhlhe40 (gene Bhlhe40, AM193-significant genes): -0.9608; logFC Birc5 (gene Birc5, AM193-significant genes): -0.9013; logFC Bnip1 (gene Bnip1, AM193-significant genes): -0.7195; logFC Bora (gene Bora, AM193-significant genes): -0.8854; logFC Brca1 (gene Brca1, AM193-significant genes): -0.7501; logFC Bsn (gene Bsn, AM193-significant genes): -0.8525; logFC Cad (gene Cad, AM193-significant genes): -1.103; logFC Calr (gene Calr, AM193-significant genes): -0.7283; logFC Ccl5 (gene Ccl5, AM193-significant genes): -0.8403; logFC Ccna2 (gene Ccna2, AM193-significant genes): -0.7214; logFC Ccnb1 (gene Ccnb1, AM193-significant genes): -0.7431; logFC Ccnf (gene Ccnf, AM193-significant genes): -0.8441; logFC Cd3eap (gene Cd3eap, AM193-significant genes): -0.7422; logFC Cdc6 (gene Cdc6, AM193-significant genes): -0.8307; logFC Cdc20 (gene Cdc20, AM193-significant genes): -0.7899; logFC Cdc25c (gene Cdc25c, AM193-significant genes): -0.8576; logFC Cdk1 (gene Cdk1, AM193-significant genes): -0.7282; logFC Cdk2 (gene Cdk2, AM193-significant genes): -0.7948; logFC Cenpa (gene Cenpa, AM193-significant genes): -0.7639; logFC Cenpn (gene Cenpn, AM193-significant genes): -0.717; logFC Cep152 (gene Cep152, AM193-significant genes): -0.7072; logFC Cse1l (gene Cse1l, AM193-significant genes): -0.7192; logFC Dctd (gene Dctd, AM193-significant genes): -1.041; logFC Ddah1 (gene Ddah1, AM193-significant genes): -1.0571; logFC Dhcr24 (gene Dhcr24, AM193-significant genes): -1.0227; logFC Dis3 (gene Dis3, AM193-significant genes): -0.7516; logFC Dkc1 (gene Dkc1, AM193-significant genes): -0.7246; logFC Dnph1 (gene Dnph1, AM193-significant genes): -0.7927; logFC E2f8 (gene E2f8, AM193-significant genes): -0.7725; logFC Egln1 (gene Egln1, AM193-significant genes): -1.099; logFC Elovl6 (gene Elovl6, AM193-significant genes): -0.8086; logFC Eme1 (gene Eme1, AM193-significant genes): -0.7703; logFC Eps8 (gene Eps8, AM193-significant genes): -0.9363; logFC Espl1 (gene Espl1, AM193-significant genes): -0.8155; logFC Exosc6 (gene Exosc6, AM193-significant genes): -0.7177; logFC Exosc8 (gene Exosc8, AM193-significant genes): -0.7524; logFC Fam162a (gene Fam162a, AM193-significant genes): -1.049; logFC Fam83d (gene Fam83d, AM193-significant genes): -0.8732; logFC Fasn (gene Fasn, AM193-significant genes): -0.7289; logFC Fdps (gene Fdps, AM193-significant genes): -0.7443; logFC Fkbp11 (gene Fkbp11, AM193-significant genes): -1.012; logFC Foxm1 (gene Foxm1, AM193-significant genes): -0.7084; logFC Fubp1 (gene Fubp1, AM193-significant genes): -0.7875; logFC Fut11 (gene Fut11, AM193-significant genes): -0.7657; logFC Gamt (gene Gamt, AM193-significant genes): -0.9245; logFC Gar1 (gene Gar1, AM193-significant genes): -0.799; logFC Gcat (gene Gcat, AM193-significant genes): -1.125; logFC Gemin4 (gene Gemin4, AM193-significant genes): -0.7731; logFC Gins1 (gene Gins1, AM193-significant genes): -0.7214; logFC Gjb2 (gene Gjb2, AM193-significant genes): -0.8099; logFC Gm973 (gene Gm973, AM193-significant genes): -0.7844; logFC Grhpr (gene Grhpr, AM193-significant genes): -0.8764; logFC Grwd1 (gene Grwd1, AM193-significant genes): -0.9726; logFC Gys1 (gene Gys1, AM193-significant genes): -0.7213; logFC H1f3 (gene H1f3, AM193-significant genes): -0.9967; logFC H1f6 (gene H1f6, AM193-significant genes): -1.042; logFC H2ac6 (gene H2ac6, AM193-significant genes): -0.96; logFC H2ac8 (gene H2ac8, AM193-significant genes): -0.9016; logFC H2ac11 (gene H2ac11, AM193-significant genes): -0.8838; logFC H2ac25 (gene H2ac25, AM193-significant genes): -0.7891; logFC H2ax (gene H2ax, AM193-significant genes): -0.7149; logFC H2bc6 (gene H2bc6, AM193-significant genes): -0.7735; logFC H2bc8 (gene H2bc8, AM193-significant genes): -0.9803; logFC H2bc9 (gene H2bc9, AM193-significant genes): -1.042; logFC H2bc11 (gene H2bc11, AM193-significant genes): -0.7444; logFC H2bc18 (gene H2bc18, AM193-significant genes): -0.8059; logFC H2bu1-ps (gene H2bu1-ps, AM193-significant genes): -0.9542; logFC H3c1 (gene H3c1, AM193-significant genes): -0.892; logFC H3c6 (gene H3c6, AM193-significant genes): -0.7599; logFC H3c7 (gene H3c7, AM193-significant genes): -0.9595; logFC H4c1 (gene H4c1, AM193-significant genes): -0.7797; logFC H4c2 (gene H4c2, AM193-significant genes): -0.7954; logFC Higd1a (gene Higd1a, AM193-significant genes): -0.903; logFC Hirip3 (gene Hirip3, AM193-significant genes): -0.7302; logFC Hmga1 (gene Hmga1, AM193-significant genes): -1.033; logFC Hmga1b (gene Hmga1b, AM193-significant genes): -1.051; logFC Hmgb2 (gene Hmgb2, AM193-significant genes): -0.8226; logFC Hmgcs1 (gene Hmgcs1, AM193-significant genes): -0.7755; logFC Hmgn2 (gene Hmgn2, AM193-significant genes): -0.7752; logFC Hpse (gene Hpse, AM193-significant genes): -0.8433; logFC Hrob (gene Hrob, AM193-significant genes): -0.8536; logFC Hspa5 (gene Hspa5, AM193-significant genes): -0.7657; logFC Idi1 (gene Idi1, AM193-significant genes): -1.099; logFC Ier3 (gene Ier3, AM193-significant genes): -0.7432; logFC Impa2 (gene Impa2, AM193-significant genes): -0.8388; logFC Impdh2-ps (gene Impdh2-ps, AM193-significant genes): -0.7159; logFC Incenp (gene Incenp, AM193-significant genes): -0.7108; logFC Ip6k3 (gene Ip6k3, AM193-significant genes): -0.7379; logFC Irgm1 (gene Irgm1, AM193-significant genes): -0.7387; logFC Jmjd6 (gene Jmjd6, AM193-significant genes): -0.8319; logFC Jpt2 (gene Jpt2, AM193-significant genes): -0.8326; logFC Kif2c (gene Kif2c, AM193-significant genes): -0.7884; logFC Kif14 (gene Kif14, AM193-significant genes): -0.8043; logFC Kif20b (gene Kif20b, AM193-significant genes): -0.7216; logFC Kif22 (gene Kif22, AM193-significant genes): -0.8428; logFC Kif23 (gene Kif23, AM193-significant genes): -0.7776; logFC Ldha (gene Ldha, AM193-significant genes): -0.9079; logFC Ldlr (gene Ldlr, AM193-significant genes): -0.7666; logFC Lig1 (gene Lig1, AM193-significant genes): -0.7368; logFC Lmnb1 (gene Lmnb1, AM193-significant genes): -0.9349; logFC Loxl2 (gene Loxl2, AM193-significant genes): -1.106; logFC Lpcat1 (gene Lpcat1, AM193-significant genes): -1.098; logFC Lpgat1 (gene Lpgat1, AM193-significant genes): -0.8431; logFC Lrp8 (gene Lrp8, AM193-significant genes): -0.9511; logFC Lyar (gene Lyar, AM193-significant genes): -0.724; logFC Man2a1 (gene Man2a1, AM193-significant genes): -0.7409; logFC Mcm10 (gene Mcm10, AM193-significant genes): -0.7922; logFC Mest (gene Mest, AM193-significant genes): -1.125; logFC Met (gene Met, AM193-significant genes): -1.057; logFC Mitf (gene Mitf, AM193-significant genes): -0.8034; logFC Mki67 (gene Mki67, AM193-significant genes): -0.7294; logFC Mxd3 (gene Mxd3, AM193-significant genes): -0.9949; logFC Mybl2 (gene Mybl2, AM193-significant genes): -1.058; logFC Naa10 (gene Naa10, AM193-significant genes): -0.8589; logFC Nampt (gene Nampt, AM193-significant genes): -0.7338; logFC Nasp (gene Nasp, AM193-significant genes): -0.9086; logFC Nbn (gene Nbn, AM193-significant genes): -0.7109; logFC Ndc80 (gene Ndc80, AM193-significant genes): -0.7825; logFC Net1 (gene Net1, AM193-significant genes): -0.7159; logFC Nhp2 (gene Nhp2, AM193-significant genes): -0.7487; logFC Nhsl1 (gene Nhsl1, AM193-significant genes): -0.7298; logFC Nmi (gene Nmi, AM193-significant genes): -0.8028; logFC Noc2l (gene Noc2l, AM193-significant genes): -0.884; logFC Nr4a1 (gene Nr4a1, AM193-significant genes): -0.9791; logFC Nsun2 (gene Nsun2, AM193-significant genes): -0.766; logFC P4ha2 (gene P4ha2, AM193-significant genes): -0.8086; logFC Pbk (gene Pbk, AM193-significant genes): -0.8895; logFC Pclaf (gene Pclaf, AM193-significant genes): -0.7086; logFC Pfkl (gene Pfkl, AM193-significant genes): -1.068; logFC Pfkp (gene Pfkp, AM193-significant genes): -0.83; logFC Pgf (gene Pgf, AM193-significant genes): -1.056; logFC Pgm1 (gene Pgm1, AM193-significant genes): -0.9062; logFC Pgp (gene Pgp, AM193-significant genes): -0.8532; logFC Pif1 (gene Pif1, AM193-significant genes): -0.8212; logFC Pimreg (gene Pimreg, AM193-significant genes): -0.8591; logFC Plekha2 (gene Plekha2, AM193-significant genes): -0.8787; logFC Plk1 (gene Plk1, AM193-significant genes): -0.7788; logFC Plpp5 (gene Plpp5, AM193-significant genes): -0.8001; logFC Pmf1 (gene Pmf1, AM193-significant genes): -0.796; logFC Pnn (gene Pnn, AM193-significant genes): -0.8904; logFC Pold1 (gene Pold1, AM193-significant genes): -0.8466; logFC Pold2 (gene Pold2, AM193-significant genes): -0.855; logFC Prkcz (gene Prkcz, AM193-significant genes): -1.145; logFC Psmb10 (gene Psmb10, AM193-significant genes): -0.8103; logFC Ptpn6 (gene Ptpn6, AM193-significant genes): -0.8579; logFC Rcc1 (gene Rcc1, AM193-significant genes): -0.8765; logFC Rcc1l (gene Rcc1l, AM193-significant genes): -0.7067
